Source: ChEMBL document CHEMBL1687743, “Intravenous doripenem at 500 milligrams versus levofloxacin at 250 milligrams, with an option to switch to oral therapy, for treatment of complicated lower urinary tract infection and pyelonephritis” (Antimicrob Agents Chemother, 2009)
Values after ≈ are worked out from the molar mass of the structure shown.

Key:
Enterococcus faecalis = assay: Antibacterial activity against Enterococcus faecalis; type: functional
Enterococcus faecium = assay: Antibacterial activity against Enterococcus faecium; type: functional
Staphylococcus aureus = assay: Antibacterial activity against Staphylococcus aureus; type: functional
Escherichia coli [1] = assay: Antibacterial activity against Escherichia coli infected in microbiologically evaluable patient with UTI assessed as cure rate at 500 mg, iv administered every 8 hrs for 10 days measured at test-of-cure visit; type: functional
Escherichia coli [2] = assay: Antibacterial activity against levofloxacin-resistant Escherichia coli infected in microbiologically evaluable patient with UTI assessed as cure rate at 500 mg, iv administered every 8 hrs for 10 days measured at test-of-cure visit; type: functional
Escherichia coli [3] = assay: Antibacterial activity against levofloxacin-resistant Escherichia coli infected in clinically evaluable patient with UTI assessed as cure rate at 500 mg, iv administered every 8 hrs for 10 days measured at test-of-cure visit; type: functional
Klebsiella pneumoniae = assay: Antibacterial activity against Klebsiella pneumoniae infected in microbiologically evaluable patient with UTI assessed as cure rate at 500 mg, iv administered every 8 hrs for 10 days measured at test-of-cure visit; type: functional
Proteus mirabilis = assay: Antibacterial activity against Proteus mirabilis infected in microbiologically evaluable patient with UTI assessed as cure rate at 500 mg, iv administered every 8 hrs for 10 days measured at test-of-cure visit; type: functional
Escherichia coli [4] = assay: Antibacterial activity against Escherichia coli isolated from patient with urinary tract infection receiving drug at 500 mg, iv administered every 8 hrs for 10 days measured after post drug therapy; type: functional; conditions: Urine
Serratia marcescens = assay: Antibacterial activity against Serratia marcescens isolated from patient with urinary tract infection receiving drug at 500 mg, iv administered every 8 hrs for 10 days measured after post drug therapy; type: functional; conditions: Urine
Enterococcus avium = assay: Antibacterial activity against doripenem-resistant Enterococcus avium; type: functional
Homo sapiens [5] = assay: Treatment emergent adverse event in intent-to-treat patient with complicated urinary tract infection assessed as headache at 500 […], iv administered every 8 hrs for 10 days; type: ADME, organism-based, Urine; parameters: route intravenous; conditions: in vivo
Homo sapiens [6] = assay: Treatment emergent adverse event in intent-to-treat patient with complicated urinary tract infection assessed as constipation at 500 […], iv administered every 8 hrs for 10 days; type: ADME, organism-based; parameters: route intravenous; conditions: in vivo
Homo sapiens [7] = assay: Treatment emergent adverse event in intent-to-treat patient with complicated urinary tract infection assessed as diarrhea at 500 […], iv administered every 8 hrs for 10 days; type: ADME, organism-based; parameters: route intravenous; conditions: in vivo
Homo sapiens [8] = assay: Treatment emergent adverse event in intent-to-treat patient with complicated urinary tract infection assessed as vomiting at 500 […], iv administered every 8 hrs for 10 days; type: organism-based; parameters: route intravenous; conditions: in vivo
Homo sapiens [9] = assay: Treatment emergent adverse event in intent-to-treat patient with complicated urinary tract infection assessed as upper abdominal pain at 500 […], iv administered every 8 hrs for 10 days; type: organism-based; parameters: route intravenous; conditions: in vivo
Homo sapiens [10] = assay: Treatment emergent adverse event in intent-to-treat patient with complicated urinary tract infection assessed as nausea at 500 […], iv administered every 8 hrs for 10 days; type: organism-based; parameters: route intravenous; conditions: in vivo
Homo sapiens [11] = assay: Treatment emergent adverse event in intent-to-treat patient with complicated urinary tract infection assessed as phlebitis at 500 […], iv administered every 8 hrs for 10 days; type: organism-based; parameters: route intravenous; conditions: in vivo
Homo sapiens [12] = assay: Treatment emergent adverse event in intent-to-treat patient with complicated urinary tract infection assessed as insomnia at 500 […], iv administered every 8 hrs for 10 days; type: ADME, organism-based, Urine; parameters: route intravenous; conditions: in vivo
Homo sapiens [13] = assay: Treatment emergent adverse event in intent-to-treat patient with complicated urinary tract infection assessed as urinary tract infection at 500 […], iv administered every 8 hrs for 10 days; type: ADME, organism-based, Urine; parameters: route intravenous; conditions: in vivo
Homo sapiens [14] = assay: Treatment emergent adverse event in intent-to-treat patient with complicated urinary tract infection assessed as asymptomatic bacteriuria at 500 […], iv administered every 8 hrs for 10 days; type: ADME, organism-based, Urine; parameters: route intravenous; conditions: in vivo
Homo sapiens [15] = assay: Treatment emergent adverse event in intent-to-treat patient with complicated urinary tract infection assessed as back pain at 500 […], iv administered every 8 hrs for 10 days; type: organism-based; parameters: route intravenous; conditions: in vivo
Homo sapiens [16] = assay: Treatment emergent adverse event in intent-to-treat patient with complicated urinary tract infection assessed as hypokalemia at 500 […], iv administered every 8 hrs for 10 days; type: ADME, organism-based, Urine; parameters: route intravenous; conditions: in vivo
Homo sapiens [17] = assay: Treatment emergent adverse event in intent-to-treat patient with complicated urinary tract infection assessed as abdominal pain at 500 […], iv administered every 8 hrs for 10 days; type: ADME, organism-based, Urine; parameters: route intravenous; conditions: in vivo
Homo sapiens [18] = assay: Treatment emergent adverse event in intent-to-treat patient with complicated urinary tract infection assessed as >=1 adverse event at 500 mg/kg, iv administered every 8 hrs for 10 days; type: organism-based, Urine; parameters: dose 500 mg/kg, route intravenous; conditions: in vivo
Homo sapiens [19] = assay: Drug related treatment emergent adverse event in intent-to-treat patient with complicated urinary tract infection assessed as >=1 adverse event at 500 mg/kg, iv administered every 8 hrs for 10 days; type: toxicity, organism-based, Urine; parameters: dose 500 mg/kg, route intravenous; conditions: in vivo
Homo sapiens [20] = assay: Drug related treatment emergent adverse event in intent-to-treat patient with complicated urinary tract infection assessed as headache at 500 […], iv administered every 8 hrs for 10 days; type: toxicity, organism-based, Urine; parameters: dose 500 […], route intravenous; conditions: in vivo
Homo sapiens [21] = assay: Drug related treatment emergent adverse event in intent-to-treat patient with complicated urinary tract infection assessed as diarrhea at 500 […], iv administered every 8 hrs for 10 days; type: toxicity, organism-based; parameters: dose 500 […], route intravenous; conditions: in vivo
Homo sapiens [22] = assay: Drug related treatment emergent adverse event in intent-to-treat patient with complicated urinary tract infection assessed as upper abdominal pain at 500 […], iv administered every 8 hrs for 10 days; type: toxicity, organism-based; parameters: dose 500 […], route intravenous; conditions: in vivo
Homo sapiens [23] = assay: Drug related treatment emergent adverse event in intent-to-treat patient with complicated urinary tract infection assessed as nausea at 500 […], iv administered every 8 hrs for 10 days; type: toxicity, organism-based; parameters: dose 500 […], route intravenous; conditions: in vivo
Homo sapiens [24] = assay: Drug related treatment emergent adverse event in intent-to-treat patient with complicated urinary tract infection assessed as phlebitis at 500 […], iv administered every 8 hrs for 10 days; type: toxicity, organism-based, Urine; parameters: dose 500 […], route intravenous; conditions: in vivo

C[C@@H](O)[C@H]1C(=O)N2C(C(=O)O)=C(S[C@@H]3CN[C@H](CNS(N)(=O)=O)C3)[C@H](C)[C@H]12 [DORIPENEM]
MIC (Enterococcus faecalis): ≥ 16 µg/mL
MIC (Enterococcus faecium): ≥ 16 µg/mL
MIC (Staphylococcus aureus): ≥ 16 µg/mL
Activity (Escherichia coli [1]): 84.4%
Activity (Escherichia coli [2]): 55%
Activity (Escherichia coli [3]): 86%
Activity (Klebsiella pneumoniae): 83.3%
Activity (Proteus mirabilis): 69.6%
MIC (Escherichia coli [4]): 0.06 µg/mL (≈ 0.143 µM)
MIC (Serratia marcescens): 0.5 µg/mL (≈ 1.19 µM)
MIC (Enterococcus avium): 128 µg/mL (≈ 304 µM)
Activity (Homo sapiens [5]): 15.7%
Activity (Homo sapiens [6]): 5.9%
Activity (Homo sapiens [7]): 5.6%
Activity (Homo sapiens [8]): 5.1%
Activity (Homo sapiens [9]): 4.5%
Activity (Homo sapiens [10]): 4.3%
Activity (Homo sapiens [11]): 3.7%
Activity (Homo sapiens [12]): 3.7%
Activity (Homo sapiens [13]): 3.7%
Activity (Homo sapiens [14]): 3.7%
Activity (Homo sapiens [15]): 2.1%
Activity (Homo sapiens [16]): 2.1%
Activity (Homo sapiens [17]): 1.9%
Activity (Homo sapiens [18]): 64%
Activity (Homo sapiens [19]): 28.2%
Activity (Homo sapiens [20]): 4.5%
Activity (Homo sapiens [21]): 4%
Activity (Homo sapiens [22]): 0.5%
Activity (Homo sapiens [23]): 2.9%
Activity (Homo sapiens [24]): 2.4%
